Patent US10709708B2, “Method of treating cancer with a combination of MER tyrosine kinase inhibitor and an epidermal growth factor receptor (EGFR) inhibitor” (Emory University, priority 2016, dated 2020)
Read-outs that look alike come from different tables or passages of the source.

What was measured:
[1] = test system: mutant EGFR NSCLC cells & EGFR TKI-resistant derivatives; assay: Viable cell counts of mutant EGFR NSCLC cells and EGFR TKI-resistant derivatives; type: cell-based; conditions: H1975, H1650 and AZD-9291 or erlotinib resistant derivatives
Experimental: The indicated cell lines are shown in FIG. 15A (H1975), FIG. 15B (H1650), FIG. 15C (H1975^AZD-R), and FIG. 15D (H1650^AZD-R).
The indicated cell lines are shown in FIG. 16A (H1975), FIG. 16B (H1650), FIG. 16C (H4011), FIG. 16D (H1975^AZD-R), FIG. 16E (H1650^AZD-R), and FIG. 16F (H1650^ERL-R).
NSCLC cells were cultured in the presence of the indicated compound(s) or an equivalent volume of vehicle (DMSO) only and the numbers of viable cells were counted at the indicated intervals using the Incucyte ZOOM live cell imaging system.

[2] = test system: A549 cells; assay: Expansion of A549 cells in culture, Incucyte ZOOM live cell imaging; type: cell-based; conditions: for reduction of A549 cell number: agents alone or together at the same concentrations
[3] = test system: mutant EGFR NSCLC cell lines; assay: Cell counts of mutant EGFR NSCLC cell lines; type: cell-based; conditions: mutant EGFR NSCLC cell lines (H1650, H4006, PC9, HCC827)
Experimental: (§1) NSCLC and normal bronchial epithelial (BEAS2B) cell lines were cultured with CO-1686 for 60 hours and confluency was determined (BEAS2B) or cells were counted (NSCLC cell lines) and normalized to vehicle-controls.
For treatment with CO-1686, the cell lines are shown in FIG. 9A (H1650), FIG. 9B (H4006), and FIG. 9C (PC9). For treatment with AZD-9291, the cell lines are shown in FIG. 9D (H1650) and FIG. 9E (HCC827). The indicated NSCLC cell lines were treated with CO-1686, AZD-9291, and/or MRX-2843 and cells were counted every 2 hours.

[4] = test system: A549 shMERTK cells; assay: Confluence of A549 shMERTK cells, Incucyte ZOOM live cell imaging; type: cell-based; conditions: A549 shMERTK cell line, CO-1686 vs vehicle
Excerpt: FIGS. 5A and 5B show inhibition of MERTK using shRNA sensitized A549 cells to CO-1686. FIG. 5A is an immunoblot showing decreased MERTK expression mediated by shRNA in A549 cells. […] FIG. 6A is an immunoblot showing decreased EGFR expression mediated by siRNA in A549 and […] cells.

[5] = test system: wild-type EGFR NSCLC cell lines; assay: Cell counts of wild-type EGFR NSCLC cell lines after 60 hours; type: cell-based
Experimental: as §1
The indicated NSCLC cell lines were treated with CO-1686 and/or MRX-2843 for 60 hours and cells were counted and normalized to vehicle controls.

[6] = test system: mutant forms of EGFR including T790M; conditions: Walter et al. 2013; cited from earlier work
[7] = test system: wild-type EGFR NSCLC cell lines; conditions: as reported by Walter; cited from earlier work
[8] = test system: mutant EGFR NSCLC cell lines; conditions: EGFR mutation incl. T790M (H1975); 1 μM; as reported by Walter; cited from earlier work

With `CN1CCC(CNc2ccc3ncc(-c4cccc(OC(F)(F)F)c4)n3n2)CC1` [SGI-1776] the “anti-tumor activity in combination with MRX-2843” value [1] was “synergistic anti-tumor activity”.

With `C=CC(=O)Nc1cc(Nc2nccc(-c3cn(C)c4ccccc34)n2)c(OC)cc1N(C)CCN(C)C` [AZD-9291, Osimertinib] the “interaction with MRX-2843” value ([2]; A549 cells, combined with MRX-2843) was “synergized” and the “interaction with MRX-2843” value [3] was “synergize”.

In the case of `C=CC(=O)Nc1cccc(Nc2nc(Nc3ccc(N4CCN(C(C)=O)CC4)cc3OC)ncc2C(F)(F)F)c1` [CO-1686, Rociletinib], the “reduction of A549 cell number” value ([2]; A549 cells) is reported as 20.9±5.7%, the “reduction in cell number” value ([2]; wild-type A549 cells, CO-1686 vs vehicle, confluence) is reported as 9.9±2.89% and the “reduction in cell number” value [4] is reported as 23.4±0.22%. The “interaction with MRX-2843” value ([5]; broad spectrum of wild-type EGFR NSCLC cell lines) was “synergizes”, the “sensitivity of cell lines to CO-1686” value ([5]; wild-type EGFR cell lines compared to mutant EGFR lines) was “resistant” and the “interaction with MRX-2843” value [3] was “synergize”. For the same compound, the IC50 [6] was 21 nM, the “sensitivity of cell lines to CO-1686” value [7] was “resistant” and the “sensitivity of cell lines to CO-1686” value [8] was “clear sensitivity”.

With `CN1CCN(Cc2ccc(-c3cn([C@H]4CC[C@H](O)CC4)c4nc(NCCC5CC5)ncc34)cc2)CC1` [MRX-2843] the “reduction of A549 cell number” value ([2]; A549 cells) was 13.2±4.1%.

In the case of `Nc1nc(Nc2ccc3c(c2)CCC(N2CCCC2)CC3)nn1-c1cc2c(nn1)-c1ccccc1CCC2` (stereo not drawn) [R428], the “interaction with CO-1686” value ([2]; A549 cells, combined with CO-1686) is reported as “synergized”.

In the case of `Clc1ccc(C2(c3ccc(-c4cn[nH]c4)cc3)CCNCC2)cc1` [AT7867], the “anti-tumor activity in combination with MRX-2843” value [1] is reported as “synergistic anti-tumor activity”.
